Test results as given in patent publication US20230331803A1, “CO-AGONISTS OF THE GLP-1 AND AMYLIN RECEPTORS” (priority 2020, published 2023).
Where two headings read alike, the source gives them in different places. Starred links: 1 amine or outer side, 2 acyl side, 3 side chain; linkers in the order of their positions; H or OH if unused. Non-standard residues stand in square brackets, D forms with d. Groups on a side chain read outwards from the residue. *: point of attachment. Decanoyl(10-(4-HOOC-PhO)) = O=C(O)c1ccc(OCCCCCCCCCC(=O)*)cc1; C20 diacid = O=C(O)CCCCCCCCCCCCCCCCCCC(=O)*; C18 diacid = O=C(O)CCCCCCCCCCCCCCCCC(=O)*; C16 diacid = O=C(O)CCCCCCCCCCCCCCC(=O)*; γGlu = O=C(O)[C@H](CCC(=O)[*:2])N[*:1]; εLys = N[C@@H](CCCCN[*:1])C(=O)[*:2]; Trx = NC[C@H]1CC[C@H](C(=O)O)CC1; AEEA = NCCOCCOCC(=O)O; Aib = CC(C)(N)C(=O)O

Key:
[1] = molecular target: T1, human GLP-1 receptor (Homo sapiens, UniProt P43220); experiment: Human GLP-1 receptor in vitro potency assay (CRE-luciferase reporter, BHK cells); format: cell-based
T1 construct: expressed in transfected cells; host or cells: BHK (Baby Hamster Kidney) cells, clone BHK 467-12A KZ-10, stably transfected, with CRE-luciferase reporter
T1 sequence (P43220 24-463): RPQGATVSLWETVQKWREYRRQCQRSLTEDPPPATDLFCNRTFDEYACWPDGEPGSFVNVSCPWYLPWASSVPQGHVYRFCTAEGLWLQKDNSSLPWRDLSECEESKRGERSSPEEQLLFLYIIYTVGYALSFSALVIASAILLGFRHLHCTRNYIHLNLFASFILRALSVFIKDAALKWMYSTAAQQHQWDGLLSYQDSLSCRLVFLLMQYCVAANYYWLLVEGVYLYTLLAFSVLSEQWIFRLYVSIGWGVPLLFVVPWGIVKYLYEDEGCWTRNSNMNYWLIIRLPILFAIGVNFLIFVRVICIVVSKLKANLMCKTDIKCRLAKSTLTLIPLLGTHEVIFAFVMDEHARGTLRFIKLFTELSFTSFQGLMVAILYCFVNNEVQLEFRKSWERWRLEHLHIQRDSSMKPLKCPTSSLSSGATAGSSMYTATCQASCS
Method: It is thus possible to measure GLP-1 receptor activity using a CRE-luciferase reporter gene introduced into Baby Hamster Kidney (BHK) cells co-expressing the GLP-1 receptor.
Cells were aliquoted and stored at -180° C. until use.
Plates were sealed and incubated at room temperature with gentle shaking for 30 minutes while protected from light. Luminescence was detected on a luminescence plate reader e.g. a Synergy 2 (BioTek).

[2] = molecular target: T2, human amylin receptor (hAmyR3) (Homo sapiens, UniProt O60896+P30988); experiment: Human amylin receptor in vitro potency assay (CRE-luciferase reporter, BHK cells); format: cell-based;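 further: BHK cells expressing human calcitonin receptor plus RAMP3 (amylin-3 receptor) with a CRE-luciferase reporter, agonist activity read as luminescence from cAMP-driven transcription, 7-point serial dilutions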
T2 construct: host or cells: BHK cells (Hollex-1 line: human calcitonin receptor (a) + CRE-Luc), further transfected with human RAMP3
T2 sequence (P30988 25-474): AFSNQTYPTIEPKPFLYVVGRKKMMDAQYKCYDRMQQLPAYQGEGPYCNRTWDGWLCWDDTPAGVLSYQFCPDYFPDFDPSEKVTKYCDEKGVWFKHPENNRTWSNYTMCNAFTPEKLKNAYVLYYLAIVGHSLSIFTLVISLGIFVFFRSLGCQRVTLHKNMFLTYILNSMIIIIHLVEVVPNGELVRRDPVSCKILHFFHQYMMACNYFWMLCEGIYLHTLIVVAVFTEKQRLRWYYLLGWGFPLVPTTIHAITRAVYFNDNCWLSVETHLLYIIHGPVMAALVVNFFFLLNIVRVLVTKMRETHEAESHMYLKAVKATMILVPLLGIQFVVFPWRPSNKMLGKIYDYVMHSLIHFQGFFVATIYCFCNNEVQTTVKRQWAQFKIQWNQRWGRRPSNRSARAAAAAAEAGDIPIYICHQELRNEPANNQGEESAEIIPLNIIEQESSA
T2 sequence (O60896 24-148): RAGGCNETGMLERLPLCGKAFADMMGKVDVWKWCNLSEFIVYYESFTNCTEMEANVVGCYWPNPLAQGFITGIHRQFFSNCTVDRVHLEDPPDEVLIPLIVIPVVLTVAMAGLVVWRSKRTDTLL

[3] = Table 4a, BHK cells expressing human GLP-1R, CRE-Luc, 3 hours, read-out: Human GLP-1R potency [EC50 (pM)]
[4] = Table 4a, BHK hAmyR3/CRE-Luc cells, 3 hours, read-out: Human AmyR3 potency [EC50 (pM)]
[5] = Table 4c, further comparator compounds
[6] = Table 4c, further comparator compounds, read-out: Human AmyR3 potency [EC50 (pM)]

## H-H[Aib]EGTFTSDVSSYLEEQAARK([AEEA-AEEA-γGlu-C20 diacid])FIEWLVRGASELSTAALGRLSAELHELATLPRTETGSGSP-NH2 [Compound 0581]
[1]; [3]
  EC50: 17 pM
[2]; [4]
  EC50: 26.4 pM

## H-H[Aib]EGTFTSDVSSYLEEQAARK([γGlu-C18 diacid])FIAWLVRGRGGGGGGGGK([γGlu-C18 diacid])EASELSTAALGRLSAELHELATLPRTETGSGSP-NH2 [Compound 0160]
[1]; [3]
  EC50: 11.9 pM
[2]; [4]
  EC50: 27.3 pM

## H-H[Aib]EGTFTSDVSSYLEEQAARK([γGlu-γGlu-γGlu-γGlu-C20 diacid])FIAWLVRGRGGGGGEASELSTAALGRLSAELHELATLPRTETGSGSP-NH2 [Compound 0633]
[1]; [3]
  EC50: 28.2 pM
[2]; [4]
  EC50: 5.3 pM

## H-H[Aib]EGTFTSDVSSYLEGQAAK([AEEA-AEEA-γGlu-C18 diacid])EFIAWLVRGRGGGGEASELSTAALGRLSAELHELATLPRTETGSGSP-NH2 [Compound 0040]
[1]; [3]
  EC50: 20.7 pM
[2]; [4]
  EC50: 7.7 pM

## H-H[Aib]EGTFTSDVSSYLEGQAAK([AEEA-AEEA-γGlu-C18 diacid])EFIAWLVRGRGGGGGGGGGGGGGEASELSTAALGRLSAELHELATLPRTETGSGSP-NH2 [Compound 0092]
[1]; [3]
  EC50: 18.5 pM
[2]; [4]
  EC50: 10.9 pM

## H-H[Aib]EGTFTSDVSSYLEGQAAK([AEEA-AEEA-γGlu-C18 diacid])EFIAWLVRGRGGGGGGGGGGGGGGGGGEASELSTAALGRLSAELHELATLPRTETGSGSP-NH2 [Compound 0093]
[1]; [3]
  EC50: 7.5 pM
[2]; [4]
  EC50: 8.6 pM

## H-H[Aib]EGTFTSDVSSYLEGQAAK([AEEA-AEEA-γGlu-C18 diacid])EFIAWLVRGRGGQEPGQEPEASELSTAALGRLSAELHELATLPRTETGSGSP-NH2 [Compound 0019]
[1]; [3]
  EC50: 13.7 pM
[2]; [4]
  EC50: 26.5 pM

## H-H[Aib]EGTFTSDVSSYLEGQAAK([AEEA-AEEA-γGlu-C18 diacid])EFIAWLVRGRGQAPGQEPEASELSTAALGRLSAELHELATLPRTETGSGSP-NH2 [Compound 0156]
[1]; [3]
  EC50: 22.6 pM
[2]; [4]
  EC50: 22.6 pM

## H-H[Aib]EGTFTSDVSSYLEGQAAK([AEEA-AEEA-γGlu-C18 diacid])EFIAWLVRGRGQEPGQAPEASELSTAALGRLSAELHELATLPRTETGSGSP-NH2 [Compound 0026]
[1]; [3]
  EC50: 8.8 pM
[2]; [4]
  EC50: 14 pM

## H-H[Aib]EGTFTSDVSSYLEGQAAK([AEEA-AEEA-γGlu-C20 diacid])EFIAWLVRGRGGGGGGGGGEASELSTAALGRLSAELHELATLPRTETGSGSP-NH2 [Compound 0094]
[1]; [3]
  EC50: 7.5 pM
[2]; [4]
  EC50: 11.3 pM

## H-H[Aib]EGTFTSDVSSYLEGQAAK([AEEA-AEEA-γGlu-C20 diacid])EFIAWLVRGRGQAPGQEPEASELSTAALGRLSAELHELATLPRTETGSGSP-NH2 [Compound 0157]
[1]; [3]
  EC50: 28.7 pM
[2]; [4]
  EC50: 18.4 pM

## H-H[Aib]EGTFTSDVSSYLEGQAAK([AEEA-AEEA-γGlu-C20 diacid])EFIAWLVRGRGQEPGQAPEASELSTAALGRLSAELHELATLPRTETGSGSP-NH2 [Compound 0202]
[1]; [3]
  EC50: 10.5 pM
[2]; [4]
  EC50: 28.4 pM

## H-H[Aib]EGTFTSDVSSYLEGQAAK([εLys-AEEA-AEEA-γGlu-C18 diacid])EFIAWLVRGRGGGGGGGGGEASELSTAALGRLSAELHELATLPRTETGSGSP-NH2 [Compound 0159]
[1]; [3]
  EC50: 30.3 pM
[2]; [4]
  EC50: 19.3 pM

## H-H[Aib]EGTFTSDVSSYLEGQAAKEFIAWLVRGRK([εLys-AEEA-AEEA-γGlu-C18 diacid])GGEASELSTAALGRPSAELHELATLPRTETGSGSP-NH2 [Comparator compound 0185, reference compound]
[1]; [5]
  EC50: 13.1 pM
[2]; [6]
  EC50: 5660 pM
[2]; Tables 4a-4c
  Ability to agonise the amylin receptor, in words: impaired their ability to agonise (activate) the amylin receptor

## H-H[Aib]EGTFTSDVSSYLEGQAAKEIFAWLVRGRK([εLys-AEEA-AEEA-γGlu-C18 diacid])GGEASELSTAALGRLSAELHELATLPRTETGSGSP-NH2 [Comparator compound 0164, reference compound]
[1]; [5]
  EC50: 852 pM
[1]; Tables 4a-4c
  Ability to agonise the GLP-1 receptor, in words: impaired their ability to agonise (activate) the GLP-1 receptor
[2]; [6]
  EC50: 29.6 pM

## H-H[Aib]EGTFTSDVSSYLEGQAAREFIAWLVRGK([AEEA-AEEA-γGlu-C18 diacid])GEGEGEEASELSTAALGRLSAELHELATLPRTETGSGSP-NH2 [Compound 0009]
[1]; [3]
  EC50: 7.9 pM
[2]; [4]
  EC50: 49.5 pM

## H-H[Aib]EGTFTSDVSSYLEGQAAREFIAWLVRGRGEGEGEK([AEEA-AEEA-γGlu-C18 diacid])EASELSTAALGRLSAELHELATLPRTETGSGSP-NH2 [Compound 0010]
[1]; [3]
  EC50: 5.4 pM
[2]; [4]
  EC50: 37 pM

## H-H[Aib]EGTFTSDVSSYLEGQAAREFIAWLVRGRGQEPGQAPK([AEEA-AEEA-γGlu-C18 diacid])EASELSTAALGRLSAELHELATLPRTETGSGSP-NH2 [Compound 0085]
[1]; [3]
  EC50: 2.2 pM
[2]; [4]
  EC50: 55.8 pM

## H-H[Aib]EGTFTSDVSSYLEGQAAREFIAWLVRGRGQEPK([AEEA-AEEA-γGlu-C18 diacid])GQAPASRLSTEALGRLSAELHELATLPRTETGSGSP-NH2 [Compound 0191]
[1]; [3]
  EC50: 5.9 pM
[2]; [4]
  EC50: 54.8 pM

## H-H[Aib]EGTFTSDVSSYLEGQAAREFIAWLVRGRK([AEEA-AEEA-γGlu-C18 diacid])GQEPGQAPEASELSTAALGRLSAELHELATLPRTETGSGSP-NH2 [Compound 0083]
[1]; [3]
  EC50: 5.4 pM
[2]; [4]
  EC50: 46.2 pM

## H-H[Aib]EGTFTSDVSSYLEK([AEEA-AEEA-γGlu-C16 diacid])QAAREFIAWLVRGRGGGGGASELSTAALGRLSK([AEEA-AEEA-γGlu-C16 diacid])ELHELATLPRTETGSGSP-NH2 [Compound 0294]
[1]; [3]
  EC50: 13.7 pM
[2]; [4]
  EC50: 34.3 pM

## H-H[Aib]EGTFTSK([AEEA-AEEA-γGlu-Trx-C20 diacid])VSSYLEEQAAREFIEWLVRGRGEASELSTAALGRLSAELHELATLPRTETGSGSP-NH2 [Compound 0417]
[1]; [3]
  EC50: 97.8 pM
[2]; [4]
  EC50: 21 pM

## HAEGTFTSDVSSYLEEK([AEEA-AEEA-γGlu-C18 diacid])AAREFIEWLVRGRGEASELSTAALGRLSAELHELATLPRTETGSGSP-NH2 [Compound 0472]
[1]; [3]
  EC50: 2.8 pM
[2]; [4]
  EC50: 24 pM

## HGEGTFTSDVSSYLEEQAARK([AEEA-AEEA-γGlu-Decanoyl(10-(4-HOOC-PhO))])FIEWLVRGK([AEEA-AEEA-γGlu-Decanoyl(10-(4-HOOC-PhO))])GEGGGGGEASELSTAALGRLSAELHELATLPRTETGSGSP-NH2 [Compound 0097]
[1]
  EC50: 10 pM
[2]
  EC50: 93.1 pM

## HGEGTFTSDVSSYLEEQAARK([AEEA-AEEA-γGlu-Decanoyl(10-(4-HOOC-PhO))])FIEWLVRGK([AEEA-AEEA-γGlu-Decanoyl(10-(4-HOOC-PhO))])GEGGGGGGGGGEASELSTAALGRLSAELHELATLPRTETGSGSP-NH2 [Compound 0098]
[1]
  EC50: 7.9 pM
[2]
  EC50: 15.6 pM

## HWEGTFTSD-K([2-[2-[2-[[2-[2-[2-[[(4S)-4-Carboxy-4-[[4-[(19-Carboxynonadecanoylamino)Methyl]Cyclohexanecarbonyl]Amino]Butanoyl]Amino]Ethoxy]Ethoxy]Acetyl]Amino]Ethoxy]Ethoxy]Acetyl])-SSYLEEQAAREFIEWLVRGRGEASELSTAALGRLSAELHELATLPRTETGSGSP-amide [Compound 0272]
[1]; [3]
  EC50: 9.2 pM
[2]; [4]
  EC50: 11.3 pM

## HWEGTFTSD-K([(2S)-2-Amino-6-[[2-[2-[2-[[2-[2-[2-[[(4S)-4-Carboxy-4-[[4-[(19-Carboxynonadecanoylamino)Methyl]Cyclohexanecarbonyl]Amino]Butanoyl]Amino]Ethoxy]Ethoxy]Acetyl]Amino]Ethoxy]Ethoxy]Acetyl]Amino]Hex Anoyl])-SSYLEEQAAREFIEWLVRGRGEASELSTAALGRLSAELHELATLPRTETGSGSP-amide [Compound 0433]
[1]; [3]
  EC50: 30.7 pM
[2]; [4]
  EC50: 12.9 pM

## HWEGTFTSDVSSYLEEK([AEEA-AEEA-γGlu-C18 diacid])AAREFIEWLVRGRGEASELSTAALGRLSAELHELATLPRTETGSGSP-NH2 [Compound 0271]
[1]; [3]
  EC50: 4.6 pM
[2]; [4]
  EC50: 15.2 pM

## HWEGTFTSDVSSYLEEK([AEEA-AEEA-γGlu-C20 diacid])AAREFIEWLVRGRGEASELSTAALGRLSAELHELATLPRTETGSGSP-NH2 [Compound 0473]
[1]; [3]
  EC50: 3.1 pM
[2]; [4]
  EC50: 16.2 pM

## HWEGTFTSDVSSYLEEQAAREFIAWLVRGRK([AEEA-AEEA-γGlu-C18 diacid])GGGGEASELSTAALGRLSAELHELATLPRTETGSGSP-NH2 [Compound 0648]
[1]; [3]
  EC50: 17 pM
[2]; [4]
  EC50: 9.2 pM

## HWEGTFTSDVSSYLEEQAARK([AEEA-AEEA-γGlu-Decanoyl(10-(4-HOOC-PhO))])FIEWLVRGK([AEEA-AEEA-γGlu-Decanoyl(10-(4-HOOC-PhO))])GEGEASELSTAALGRLSAELHELATLPRTETGSGSP-NH2 [Compound 0099]
[1]
  EC50: 9.6 pM
[2]
  EC50: 44.9 pM

## HWEGTFTSDVSSYLEEQAARK([AEEA-AEEA-γGlu-Decanoyl(10-(4-HOOC-PhO))])FIEWLVRGK([AEEA-AEEA-γGlu-Decanoyl(10-(4-HOOC-PhO))])GEGGGGGGGGGEASELSTAALGRLSAELHELATLPRTETGSGSP-NH2 [Compound 0101]
[1]
  EC50: 7.1 pM
[2]
  EC50: 10.2 pM

## H[Aib]EGTFTSDVSSYLEEQAARK([AEEA-AEEA-γGlu-C16 diacid])FIAWLVRGK([AEEA-AEEA-γGlu-C16 diacid])GGGEASELSTAALGRLSAELHELATLPRTETGSGSP-NH2 [Compound 0076]
[1]; [3]
  EC50: 1.7 pM
[2]; [4]
  EC50: 46.4 pM

## H[Aib]EGTFTSDVSSYLEEQAARK([AEEA-AEEA-γGlu-C18 diacid])FIAWLVRGK([AEEA-AEEA-γGlu-C18 diacid])GGEASELSTAALGRLSAELHELATLPRTETGSGSP-NH2 [Compound 0127]
[1]; [3]
  EC50: 7.1 pM
[2]; [4]
  EC50: 63.9 pM

## H[Aib]EGTFTSDVSSYLEEQAARK([AEEA-AEEA-γGlu-C18 diacid])FIAWLVRGK([AEEA-AEEA-γGlu-C18 diacid])GGGGGGGGGEASELSTAALGRLSAELHELATLPRTETGSGSP-NH2 [Compound 0109]
[1]; [3]
  EC50: 3.2 pM
[2]; [4]
  EC50: 19.1 pM
